Starred links: 1 amine or outer side, 2 acyl side, 3 side chain; linkers in the order of their positions; H or OH if unused. Positions of bridges follow the written chain, without caps; N, C: chain ends. Non-standard residues stand in square brackets, D forms with d. Residues, ends and D or L forms follow the SMILES beside them. Groups on a side chain read outwards from the residue. *: point of attachment. Trp(1-Me) = Cn1cc(C[C@H](N)C(=O)O)c2ccccc21; Abu(4-yl) = O=C([C@H](CC[*:3])N[*:1])[*:2]; C18 diacid = O=C(O)CCCCCCCCCCCCCCCCC(=O)*; C16 diacid = O=C(O)CCCCCCCCCCCCCCC(=O)*; γGlu = O=C(O)[C@H](CCC(=O)[*:2])N[*:1]; AEEA = NCCOCCOCC(=O)O; Sar = CNCC(=O)O

The subject of this assay is classical complement pathway. In words: In vitro haemolysis assay (inhibition of classical complement pathway). The conditions noted are these: Table 3; human serum, sensitized sheep red blood cells; read-out: IC50[nM], in vitro analysis of inhibition of hemolysis. It is filed as cell-based, human. Put shortly: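 Serially diluted compound (9 points) was preincubated 15 min at room temperature with diluted human serum, titrated per batch to give 70-90% maximal haemolysis, in Tris/casein buffer pH 7.4 with Mg2+/Ca2+. Antibody-sensitized sheep erythrocytes were then added for 30 min at 37° C, and the reaction was stopped with EDTA. Haemolysis was read at A405, with IC50 from 4PL fit.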
A word on the IC50: it is the point on the concentration scale where inhibition reaches its midpoint. Take `CC[C@H](C)[C@H](NC(C)=O)C(=O)N[C@H]1CSSC[C@@H](C(=O)N[C@H](C(=O)N[C@@H](CCC(=O)O)C(=O)NCC(=O)N[C@@H](CCCCNC(=O)CC[C@H](NC(=O)CCCCCCCCCCCCCCC(=O)O)C(=O)O)C(N)=O)[C@@H](C)O)NC(=O)[C@H](CCCNC(=N)N)NC(=O)[C@H](Cc2c[nH]cn2)NC(=O)[C@H](CCC(=O)O)NC(=O)CNC(=O)[C@H](Cc2c[nH]c3ccccc23)NC(=O)[C@H](CC(=O)O)NC(=O)[C@H](CCC(N)=O)NC(=O)[C@H](Cc2c[nH]c3ccccc23)NC(=O)[C@H]([C@@H](C)CC)NC1=O` [Compound 92] (Ac-ICIWQDWGEHRCTEGK([γGlu-C16 diacid])-NH2; disulfide 2-12): the IC50 was below 1000 nM.

Regarding `CC[C@H](C)[C@@H]1NC(=O)[C@@H](NC(=O)[C@H](Cc2ccccc2)NC(=O)[C@H](CCC(=O)O)NC(C)=O)CSSC[C@@H](C(=O)N[C@@H](CCC(=O)O)C(=O)N[C@@H](CO)C(N)=O)NC(=O)[C@H](CCCNC(=N)N)NC(=O)[C@H](Cc2c[nH]cn2)NC(=O)[C@H](CCC(=O)O)NC(=O)CNC(=O)[C@H](Cc2c[nH]c3ccccc23)NC(=O)[C@H](CC(=O)O)NC(=O)[C@H](CCC(N)=O)NC(=O)[C@H](Cc2cn(C)c3ccccc23)NC1=O` [Compound 85] (Ac-EFCI[Trp(1-Me)]QDWGEHRCES-NH2; disulfide 3-13), the IC50 is below 100 nM.

For the compound `CC[C@H](C)[C@@H]1NC(=O)[C@@H](NC(=O)[C@H](Cc2ccccc2)NC(=O)[C@H](CCC(=O)O)NC(=O)[C@H](CO)NC(C)=O)CSSC[C@@H](C(=O)N(C)CC(=O)N[C@@H](CCC(=O)O)C(=O)N[C@@H](CCCCN)C(=O)N[C@@H](CCC(=O)NCC(=O)NCC(=O)NCC(=O)N[C@@H](CCCCNC(=O)CC[C@H](NC(=O)CNC(=O)CC[C@H](NC(=O)CCCCCCCCCCCCCCCCC(=O)O)C(=O)O)C(=O)O)C(N)=O)C(=O)O)NC(=O)[C@H](CCCNC(=N)N)NC(=O)[C@H](Cc2c[nH]cn2)NC(=O)[C@H](CCC(=O)O)NC(=O)CNC(=O)[C@H](Cc2c[nH]c3ccccc23)NC(=O)[C@H](CC(=O)O)NC(=O)[C@H](CCC(N)=O)NC(=O)[C@H](Cc2cn(C)c3ccccc23)NC1=O` [Compound 132] (Ac-SEFCI[Trp(1-Me)]QDWGEHRC[Sar]EK[γGlu]GGGK([γGlu-Gly-γGlu-C18 diacid])-NH2; disulfide 4-14), the IC50 was below 100 nM.

Take `CC[C@H](C)[C@H](NC(C)=O)C(=O)N[C@H]1CSSC[C@@H](C(=O)N[C@H](C(=O)NCC(=O)N[C@@H](C)C(=O)N[C@@H](CCC(=O)O)C(=O)N[C@@H](CO)C(N)=O)[C@@H](C)O)NC(=O)[C@H](CCCNC(=N)N)NC(=O)[C@H](Cc2c[nH]cn2)NC(=O)[C@H](C)NC(=O)CNC(=O)[C@H](Cc2c[nH]c3ccccc23)NC(=O)[C@H](CCCCN)NC(=O)[C@H](CCC(N)=O)NC(=O)[C@H](Cc2c[nH]c3ccccc23)NC(=O)[C@H]([C@@H](C)CC)NC1=O` [Compound 8] (Ac-ICIWQKWGAHRCTGAES-NH2; disulfide 2-12): the IC50 was below 500 nM.

Consider `CC[C@H](C)[C@@H]1NC(=O)[C@@H](NC(=O)[C@H](Cc2ccccc2)NC(=O)[C@H](CCC(=O)O)NC(=O)[C@H](CO)NC(C)=O)CSCC[C@@H](C(=O)N(C)CC(=O)N[C@@H](CCC(=O)O)C(=O)NCC(=O)N[C@@H](CCC(=O)O)C(=O)NCCOCCOCC(=O)NCCOCCOCC(=O)N[C@@H](CCCCNC(=O)CC[C@H](NC(=O)CNC(=O)CC[C@H](NC(=O)CCCCCCCCCCCCCCC(=O)O)C(=O)O)C(=O)O)C(N)=O)NC(=O)[C@H](CCCNC(=N)N)NC(=O)[C@H](Cc2c[nH]cn2)NC(=O)[C@H](CCC(=O)O)NC(=O)CNC(=O)[C@H](Cc2c[nH]c3ccccc23)NC(=O)[C@H](CC(=O)O)NC(=O)[C@H](CCC(N)=O)NC(=O)[C@H](Cc2cn(C)c3ccccc23)NC1=O` [Compound 160, Ac-SEFA(1)I[1-Me-Trp]QDWGEHRhC(1)[Sar]EGE[Peg3][Peg3]-K([15-carboxy-pentadecanoyl][γGlu]G[γGlu])-NH2] (Ac-SEFCI[Trp(1-Me)]QDWGEHR[Abu(4-yl)][Sar]EGE[AEEA][AEEA]K([γGlu-Gly-γGlu-C16 diacid])-NH2; thioether 4-14), for which the IC50 is below 100 nM.

Consider `CC[C@H](C)[C@@H]1NC(=O)[C@@H](NC(=O)CN(C)C(=O)[C@H](CCC(=O)O)NC(=O)[C@H](CO)NC(C)=O)CSSC[C@@H](C(=O)N(C)CC(=O)N[C@@H](CCC(=O)O)C(=O)N[C@@H](C)C(N)=O)NC(=O)[C@H](CCCNC(=N)N)NC(=O)[C@H](Cc2c[nH]cn2)NC(=O)[C@H](CCC(=O)O)NC(=O)CNC(=O)[C@H](Cc2c[nH]c3ccccc23)NC(=O)[C@H](CCC(=O)O)NC(=O)[C@H](CCC(N)=O)NC(=O)[C@H](Cc2cn(C)c3ccccc23)NC1=O` [Compound 90] (Ac-SE[Sar]CI[Trp(1-Me)]QEWGEHRC[Sar]EA-NH2; disulfide 4-14), for which the IC50 was below 250 nM.

For `CC[C@H](C)[C@H](NC(C)=O)C(=O)N[C@H]1CSSC[C@@H](C(=O)N[C@H](C(N)=O)[C@@H](C)O)NC(=O)[C@H](CCCNC(=N)N)NC(=O)[C@H](Cc2c[nH]cn2)NC(=O)[C@H](CCCCN)NC(=O)CNC(=O)[C@H](Cc2c[nH]c3ccccc23)NC(=O)[C@H](CC(=O)O)NC(=O)[C@H](CCC(N)=O)NC(=O)[C@H](Cc2c[nH]c3ccccc23)NC(=O)[C@H]([C@@H](C)CC)NC1=O` [Compound 5] (Ac-ICIWQDWGKHRCT-NH2; disulfide 2-12), the IC50 is below 250 nM.

Regarding `CC[C@H](C)[C@H](NC(=O)[C@H](C)NC(=O)[C@H](CO)NC(=O)CNC(=O)[C@H](CCCCNC(=O)COCCOCCNC(=O)COCCOCCNC(=O)CC[C@H](NC(=O)CCCCCCCCCCCCCCC(=O)O)C(=O)O)NC(C)=O)C(=O)N[C@H]1CSSC[C@@H](C(=O)N[C@H](C(=O)N[C@@H](CCC(=O)O)C(=O)NCC(=O)N[C@@H](CCC(=O)O)C(N)=O)[C@@H](C)O)NC(=O)[C@H](CCCNC(=N)N)NC(=O)[C@H](Cc2c[nH]cn2)NC(=O)[C@H](CCC(=O)O)NC(=O)CNC(=O)[C@H](Cc2c[nH]c3ccccc23)NC(=O)[C@H](CC(=O)O)NC(=O)[C@H](CCC(N)=O)NC(=O)[C@H](Cc2c[nH]c3ccccc23)NC(=O)[C@H]([C@@H](C)CC)NC1=O` [Compound 100] (Ac-K([AEEA-AEEA-γGlu-C16 diacid])GSAICIWQDWGEHRCTEGE-NH2; disulfide 6-16), the IC50 is below 500 nM.

For `CC[C@H](C)[C@@H]1NC(=O)[C@@H](NC(=O)[C@H](Cc2ccccc2)NC(=O)[C@H](CCC(=O)O)NC(=O)CNC(C)=O)CSCC[C@@H](C(=O)N(C)CC(=O)N[C@@H](CCC(=O)O)C(=O)N[C@@H](C)C(=O)N[C@@H](CCC(=O)O)C(=O)NCCOCCOCC(=O)NCCOCCOCC(=O)N[C@@H](CCCCNC(=O)CC[C@H](NC(=O)CNC(=O)CC[C@H](NC(=O)CCCCCCCCCCCCCCCCC(=O)O)C(=O)O)C(=O)O)C(N)=O)NC(=O)[C@H](CCCNC(=N)N)NC(=O)[C@H](Cc2c[nH]cn2)NC(=O)[C@H](CCC(=O)O)NC(=O)CN(C)C(=O)[C@H](Cc2c[nH]c3ccccc23)NC(=O)[C@H](CC(=O)O)NC(=O)[C@H](CCC(N)=O)NC(=O)[C@H](Cc2cn(C)c3ccccc23)NC1=O` [Compound 149, Ac-GEFA(1)I[1-Me-Trp]QDW[Sar]EHRhC(1)[Sar]EAE[Peg3][Peg3]-K([17-carboxy-heptadecanoyl][γGlu]G[γGlu])-NH2] (Ac-GEFCI[Trp(1-Me)]QDW[Sar]EHR[Abu(4-yl)][Sar]EAE[AEEA][AEEA]K([γGlu-Gly-γGlu-C18 diacid])-NH2; thioether 4-14), the IC50 is below 100 nM.

The values are drawn from patent US20220306695A1, “COMPSTATIN ANALOGUES AND THEIR MEDICAL USES” (priority 2019, published 2022).
